Data as given in patent publication US9125824B1 (InnoVitamin Organics, LLC, priority 2010, dated 2015).

Experiment: storage stability of trans-resveratrol under controlled temperature and humidity
Type: physicochemical
Conditions: stored at 10.0° C. (50 degrees F.) to approximately 30° C. (86 degrees F.), humidity less than 35 percent
Procedure: (50 degrees F.) to approximately 30° C.
Twenty five (25) kilograms of fine powder consisting of pomace, vines and leaves is stored in a cool, dark, dry location for shipping to the dietary supplement manufacturing facility. The temperature range of the storage area is in a range of between approximately 10.0° C. (50 degrees F.) to approximately 30° C. (86 degrees F.) and the dry location has a humidity level of less than 35 percent water vapor in the air.

In the case of Oc1ccc(/C=C/c2cc(O)cc(O)c2)cc1 [trans-resveratrol], the “stability during storage and processing” value is reported as “remain stable” and the “stability during storage and processing” value (listed as organic trans-resveratrol) is reported as “remains a stable compound”.
